Test results: patent US10434057B2, “Cosmetic composition comprising osmanthus asiaticus extract and clematis apiifolia extract” (AMI COSMETIC CO., LTD., priority 2017, dated 2019)

Tests used:
B16F10 cells = assay: Melanin content assay (amount of produced melanin); format: cell-based; conditions: α-MSH stimulated, sample 200 μg/mL (50 mg/L), 48 hours, arbutin 200 μg/mL as control
Procedure: To check a whitening effect of the samples of Examples and Comparative Examples, an ability of the samples of Examples and Comparative Examples to inhibit melanogenesis was evaluated using a melanin content assay (Eisinger M et al., 1982; Siegrist W and Eberle A N, 1986). Each of the samples of Examples and Comparative Examples was suspended at a concentration of 50 mg/L in purified water, and an amount of produced melanin was determined.
B16F10 cells were seeded at a concentration of 1.5×10^5 cells/well in a 60 mm culture dish, and then cultured for 24 hours. A melanogenesis-stimulating hormone, α-MSH (Sigma-Aldrich, St. Louis, Mo., USA), and each of the samples of Examples and Comparative Examples were added to a medium at a concentration of 200 μg/mL (Virador V M et al., 1999).
After 48 hours had elapsed, the cells were harvested, and then washed once with PBS. Thereafter, 120 μL of a 1 N NaOH lysis buffer was added thereto, and the resulting mixture was heated at 95° C. for 10 minutes to lyse the cells. The optical density at a wavelength of 450 nm was measured using a microplate reader. Here, arbutin at a concentration of 200 μg/mL was used as the control (Table 6).
In particular, the melanin production rates at different concentrations were measured in the case of Example 1 (FIG. 1).

[1] = Free radical scavenging activity by DPPH assay; format: biochemical; conditions: optical density at 540 nm; lower SC50 = higher activity
Procedure: Each of the extracts of Examples and Comparative Examples was suspended in purified water to evaluate a free radical scavenging activity of each of the extracts. A DPPH assay is a method of measuring an optical density at 540 nm to measure a level of discoloration caused by an inhibitor scavenging stable 2,2-diphenyl-1-picrylhydrazyl (DPPH) radicals. Vitamin C was used as the control, and a 50% scavenging concentration (SC50) of the DPPH radicals was measured. Then, the measured SC50 of the DPPH radicals was compared to that of the control (Table 3). In particular, the free radical scavenging activity of the sample of Example 1 at different concentrations was measured, and compared to that of the control (FIG. 1).

[2] = Free radical scavenging activity by ABTS assay; format: biochemical; conditions: measured at 732 nm; lower SC50 = higher activity
Procedure: Each of the extracts of Examples and Comparative Examples was suspended in purified water to evaluate a free radical scavenging activity of each of the extracts. […] Vitamin C was used as the control, and a 50% scavenging concentration (SC50) of the ABTS radicals was measured. Then, the measured SC50 of the ABTS radicals was compared to that of the control (Table 4). In particular, the free radical scavenging activities at different concentrations were measured in the case of Example 1, and compared to that of the control (FIG. 1).

women = assay: Skin elasticity-improving effect of formulated creams (Cutometer MPA580); format: in vivo; conditions: cream around the eyes twice a day for 12 weeks; Cutometer MPA580 R8 value
Procedure: A skin elasticity-improving effect of the cosmetic composition including each of the samples obtained in Examples and Comparative Examples was evaluated. The respective samples were formulated into creams having the same compositions. In this case, only the samples of Examples 1 to 9 and Comparative Examples 1 to 12 differed. Healthy women over the age of 20 years old (with an average age of 37 years old) were divided into groups, and instructed to apply the formulated creams of Examples and Comparative Examples onto their faces under conditions of a temperature of 24 to 26° C. and a humidity of 75%. The formulated creams were applied around the eyes twice (morning and evening) a day for 12 weeks, and the skin elasticity was measured using a skin elastometer (Cutometer MPA580 commercially available from Courage+Khazaka Electronic GmbH, Germany). The test results were expressed as R8 (R8 (week 12)−R8 (week 0)) values of the Cutometer MPA580, and the R8 values represented properties such as skin viscoelasticity.

SMILES	Melanin production rate (B16F10 cells)	50% Scavenging Concentration (SC50) of DPPH Radicals [1]	50% Scavenging Concentration (SC50) of ABTS Radicals [2]	Skin elasticity-improving effect, R8 (week 12) − R8 (week 0) (women)
OC[C@H]1O[C@@H](Oc2ccc(O)cc2)[C@H](O)[C@@H](O)[C@@H]1O [Positive control, arbutin]	38.2%			
O=C1O[C@H]([C@@H](O)CO)C(O)=C1O [Control (Vitamin C), Vitamin C]		8.7 µg/mL	8.7 µg/mL	0.92
